In patent US10004701B2, “Methods and compositions for treating infection” (UNIVERSITY OF ROCHESTER, priority 2012, dated 2018):
Counter-ions that a name gives are not always drawn. Like-named read-outs stand apart in the source and are kept apart here.

Key:
Test in all cases: AK assay 384-well format, Prestwick library screening
[1] = test system: A. baumannii strain 98-37-09; type: cell-based, Acinetobacter baumannii; details: 50 μM final drug concentration; for fold induction at 50 µM: Acinetobacter baumannii, 983709, 3 h
E. cloacae = type: cell-based, Enterobacter cloacae; details: 50 μM final drug concentration; for fold induction at 50 µM: Enterobacter cloacae, 3 h
P. aeruginosa = type: cell-based, Pseudomonas aeruginosa; details: 50 μM final drug concentration; for fold induction at 50 µM: Pseudomonas aeruginosa, 3 h
K. pneumoniae = type: cell-based, Klebsiella pneumoniae; details: 50 μM final drug concentration; for fold induction at 50 µM: Klebsiella pneumoniae, 3 h
E. faecium = type: cell-based, Enterococcus faecium; details: 50 μM final drug concentration; for fold induction at 50 µM: Enterococcus faecium, 3 h
E. coli = type: cell-based, Escherichia coli; details: 50 μM final drug concentration; for fold induction at 50 µM: Escherichia coli, 3 h
[2] = test system: S. aureus strain USA300-0114; type: cell-based, Staphylococcus aureus; details: 50 μM final drug concentration; for fold induction at 50 µM: Staphylococcus aureus, USA300, 3 h
[3] = planktonic A. baumannii, positive cutoff 3-fold increase, read-out: AK-based Prestwick library screening result, A. baumannii (fold increase in extracellular AK activity)
[4] = planktonic E. cloacae, positive cutoff 3-fold increase, read-out: AK-based Prestwick library screening result, E. cloacae (fold increase in extracellular AK activity)
[5] = planktonic P. aeruginosa, positive cutoff 3-fold increase, read-out: AK-based Prestwick library screening result, P. aeruginosa (fold increase in extracellular AK activity)
[6] = planktonic K. pneumoniae, positive cutoff 3-fold increase, read-out: AK-based Prestwick library screening result, K. pneumoniae (fold increase in extracellular AK activity)
[7] = planktonic E. faecium, positive cutoff 3-fold increase, read-out: AK-based Prestwick library screening result, E. faecium (fold increase in extracellular AK activity)
[8] = planktonic E. coli, positive cutoff 3-fold increase, read-out: AK-based Prestwick library screening result, E. coli (fold increase in extracellular AK activity)
[9] = planktonic S. aureus, positive cutoff 3-fold increase, read-out: AK-based Prestwick library screening result, S. aureus (fold increase in extracellular AK activity)
[10] = planktonic, cutoff for positive 3-fold increase, read-out: AK-based Prestwick Library Screening Results, A. baumannii (fold increase in extracellular AK activity)
[11] = planktonic, cutoff for positive 3-fold increase, read-out: AK-based Prestwick Library Screening Results, E. cloacae (fold increase in extracellular AK activity)
[12] = planktonic, cutoff for positive 3-fold increase, read-out: AK-based Prestwick Library Screening Results, P. aeruginosa (fold increase in extracellular AK activity)
[13] = planktonic, cutoff for positive 3-fold increase, read-out: AK-based Prestwick Library Screening Results, K. pneumoniae (fold increase in extracellular AK activity)
[14] = planktonic, cutoff for positive 3-fold increase, read-out: AK-based Prestwick Library Screening Results, E. faecium (fold increase in extracellular AK activity)
[15] = planktonic, cutoff for positive 3-fold increase, read-out: AK-based Prestwick Library Screening Results, E. coli (fold increase in extracellular AK activity)
[16] = planktonic, cutoff for positive 3-fold increase, read-out: AK-based Prestwick Library Screening Results, S. aureus (fold increase in extracellular AK activity)
[17] = planktonic, cutoff for positive-scoring molecules 3-fold increase
[18] = planktonic, cutoff for positive-scoring molecules 3-fold increase, read-out: AK-based Prestwick Library Screening Results, A. baumannii (fold increase in extracellular AK activity)
[19] = planktonic, cutoff for positive-scoring molecules 3-fold increase, read-out: AK-based Prestwick Library Screening Results, E. cloacae (fold increase in extracellular AK activity)
[20] = planktonic, cutoff for positive-scoring molecules 3-fold increase, read-out: AK-based Prestwick Library Screening Results, P. aeruginosa (fold increase in extracellular AK activity)
[21] = planktonic, cutoff for positive-scoring molecules 3-fold increase, read-out: AK-based Prestwick Library Screening Results, K. pneumoniae (fold increase in extracellular AK activity)
[22] = planktonic, cutoff for positive-scoring molecules 3-fold increase, read-out: AK-based Prestwick Library Screening Results, E. faecium (fold increase in extracellular AK activity)
[23] = planktonic, cutoff for positive-scoring molecules 3-fold increase, read-out: AK-based Prestwick Library Screening Results, E. coli (fold increase in extracellular AK activity)
[24] = planktonic, cutoff for positive-scoring molecules 3-fold increase, read-out: AK-based Prestwick Library Screening Results, S. aureus (fold increase in extracellular AK activity)

## CCC(=O)O[C@]1(C(=O)SCF)[C@H](C)C[C@H]2[C@@H]3C[C@H](F)C4=CC(=O)C=C[C@]4(C)[C@@]3(F)[C@@H](O)C[C@@]21C [Fluticasone propionate]
[1]; [3]
  fold induction at 50 µM: 0.8
E. cloacae; [4]
  fold induction at 50 µM: 1.5
P. aeruginosa; [5]
  fold induction at 50 µM: 0.8
K. pneumoniae; [6]
  fold induction at 50 µM: 0.7
E. faecium; [7]
  fold induction at 50 µM: 0.9
E. coli; [8]
  fold induction at 50 µM: 0.8
[2]; [9]
  fold induction at 50 µM: 0.7

## CC(C)n1c(/C=C/C(O)CC(O)CC(=O)O)c(-c2ccc(F)cc2)c2ccccc21 (centres unmarked) [Fluvastatin sodium salt]
[1]; cutoff for positive-scoring molecules 3-fold increase, read-out: AK-based Prestwick Library Screening Results, A. baumannii (fold increase in extracellular AK activity)
  fold induction at 50 µM: 0.9
E. cloacae; cutoff for positive-scoring molecules 3-fold increase, read-out: AK-based Prestwick Library Screening Results, E. cloacae (fold increase in extracellular AK activity)
  fold induction at 50 µM: 1.7
P. aeruginosa; cutoff for positive-scoring molecules 3-fold increase, read-out: AK-based Prestwick Library Screening Results, P. aeruginosa (fold increase in extracellular AK activity)
  fold induction at 50 µM: 1
K. pneumoniae; cutoff for positive-scoring molecules 3-fold increase, read-out: AK-based Prestwick Library Screening Results, K. pneumoniae (fold increase in extracellular AK activity)
  fold induction at 50 µM: 0.9
E. faecium; cutoff for positive-scoring molecules 3-fold increase, read-out: AK-based Prestwick Library Screening Results, E. faecium (fold increase in extracellular AK activity)
  fold induction at 50 µM: 1
E. coli; cutoff for positive-scoring molecules 3-fold increase, read-out: AK-based Prestwick Library Screening Results, E. coli (fold increase in extracellular AK activity)
  fold induction at 50 µM: 1.3
[2]; cutoff for positive-scoring molecules 3-fold increase, read-out: AK-based Prestwick Library Screening Results, S. aureus (fold increase in extracellular AK activity)
  fold induction at 50 µM: 1

## COCCCC/C(=N\OCCN)c1ccc(C(F)(F)F)cc1 [Fluvoxamine maleate]
[1]; [3]
  fold induction at 50 µM: 0.9
E. cloacae; [4]
  fold induction at 50 µM: 1.1
P. aeruginosa; [5]
  fold induction at 50 µM: 0.8
K. pneumoniae; [6]
  fold induction at 50 µM: 0.7
E. faecium; [7]
  fold induction at 50 µM: 0.8
E. coli; [8]
  fold induction at 50 µM: 0.9
[2]; [9]
  fold induction at 50 µM: 0.7

## Nc1nc2ncc(CNc3ccc(C(=O)N[C@@H](CCC(=O)O)C(=O)O)cc3)nc2c(=O)[nH]1 [Folic acid]
[1]; [10]
  fold induction at 50 µM: 1.3
E. cloacae; [11]
  fold induction at 50 µM: 1.3
P. aeruginosa; [12]
  fold induction at 50 µM: 1.1
K. pneumoniae; [13]
  fold induction at 50 µM: 1
E. faecium; [14]
  fold induction at 50 µM: 1.1
E. coli; [15]
  fold induction at 50 µM: 1.3
[2]; [16]
  fold induction at 50 µM: 1

## Nc1nc(=O)c2c([nH]1)NCC(CNc1ccc(C(=O)N[C@@H](CCC(=O)[O-])C(=O)[O-])cc1)N2C=O.[Ca+2] (some centres unmarked) [Folinic acid calcium salt]
[1]; [17]
  AK-based Prestwick Library Screening Results, A. baumannii (fold increase in extracellular AK activity): 0.7
E. cloacae; [17]
  AK-based Prestwick Library Screening Results, E. cloacae (fold increase in extracellular AK activity): 0.7
P. aeruginosa; [17]
  AK-based Prestwick Library Screening Results, P. aeruginosa (fold increase in extracellular AK activity): 0.6
K. pneumoniae; [17]
  AK-based Prestwick Library Screening Results, K. pneumoniae (fold increase in extracellular AK activity): 0.6
E. faecium; [17]
  AK-based Prestwick Library Screening Results, E. faecium (fold increase in extracellular AK activity): 1.0
E. coli; [17]
  AK-based Prestwick Library Screening Results, E. coli (fold increase in extracellular AK activity): 0.7
[2]; [17]
  AK-based Prestwick Library Screening Results, S. aureus (fold increase in extracellular AK activity): 0.7

## O=C(O)c1ccccc1OP(=O)(O)O [Fosfosal]
[1]; [18]
  fold induction at 50 µM: 0.8
E. cloacae; [19]
  fold induction at 50 µM: 0.8
P. aeruginosa; [20]
  fold induction at 50 µM: 0.7
K. pneumoniae; [21]
  fold induction at 50 µM: 0.6
E. faecium; [22]
  fold induction at 50 µM: 0.9
E. coli; [23]
  fold induction at 50 µM: 0.7
[2]; [24]
  fold induction at 50 µM: 0.7

## O=C1OC(CN2CCOCC2)CN1/N=C/c1ccc([N+](=O)[O-])o1 (centres unmarked) [Furaltadone hydrochloride]
[1]; [18]
  fold induction at 50 µM: 1
E. cloacae; [19]
  fold induction at 50 µM: 1.7
P. aeruginosa; [20]
  fold induction at 50 µM: 1.1
K. pneumoniae; [21]
  fold induction at 50 µM: 2.6
E. faecium; [22]
  fold induction at 50 µM: 1.1
E. coli; [23]
  fold induction at 50 µM: 0.9
[2]; [24]
  fold induction at 50 µM: 0.7

## O=C1OCCN1/N=C/c1ccc([N+](=O)[O-])o1 [Furazolidone]
[1]; [18]
  fold induction at 50 µM: 0.4
E. cloacae; [19]
  fold induction at 50 µM: 0.6
P. aeruginosa; [20]
  fold induction at 50 µM: 0.6
K. pneumoniae; [21]
  fold induction at 50 µM: 3.2
E. faecium; [22]
  fold induction at 50 µM: 0.9
E. coli; [23]
  fold induction at 50 µM: 0.8
[2]; [24]
  fold induction at 50 µM: 0.8

## NS(=O)(=O)c1cc(C(=O)O)c(NCc2ccco2)cc1Cl [Furosemide]
[1]; planktonic A. baumannii, cutoff for positive-scoring molecules 3-fold increase, read-out: AK-based Prestwick Library Screening Results, A. baumannii (increase in extracellular AK activity)
  fold induction at 50 µM: 0.8
E. cloacae; planktonic E. cloacae, cutoff for positive-scoring molecules 3-fold increase, read-out: AK-based Prestwick Library Screening Results, E. cloacae (increase in extracellular AK activity)
  fold induction at 50 µM: 0.8
P. aeruginosa; planktonic P. aeruginosa, cutoff for positive-scoring molecules 3-fold increase, read-out: AK-based Prestwick Library Screening Results, P. aeruginosa (increase in extracellular AK activity)
  fold induction at 50 µM: 0.9
K. pneumoniae; planktonic K. pneumoniae, cutoff for positive-scoring molecules 3-fold increase, read-out: AK-based Prestwick Library Screening Results, K. pneumoniae (increase in extracellular AK activity)
  fold induction at 50 µM: 0.7
E. faecium; planktonic E. faecium, cutoff for positive-scoring molecules 3-fold increase, read-out: AK-based Prestwick Library Screening Results, E. faecium (increase in extracellular AK activity)
  fold induction at 50 µM: 0.9
E. coli; planktonic E. coli, cutoff for positive-scoring molecules 3-fold increase, read-out: AK-based Prestwick Library Screening Results, E. coli (increase in extracellular AK activity)
  fold induction at 50 µM: 1
[2]; planktonic S. aureus, cutoff for positive-scoring molecules 3-fold increase, read-out: AK-based Prestwick Library Screening Results, S. aureus (increase in extracellular AK activity)
  fold induction at 50 µM: 0.7

## CCCCc1ccc(C(=O)O)nc1 [Fusaric acid]
[1]; planktonic A. baumannii, […], read-out: AK-based Prestwick Library Screening Results, A. baumannii (increase in extracellular AK activity)
  fold induction at 50 µM: 0.9
E. cloacae; planktonic E. cloacae, […], read-out: AK-based Prestwick Library Screening Results, E. cloacae (increase in extracellular AK activity)
  fold induction at 50 µM: 1.2
P. aeruginosa; planktonic P. aeruginosa, […], read-out: AK-based Prestwick Library Screening Results, P. aeruginosa (increase in extracellular AK activity)
  fold induction at 50 µM: 1.1
K. pneumoniae; planktonic K. pneumoniae, […], read-out: AK-based Prestwick Library Screening Results, K. pneumoniae (increase in extracellular AK activity)
  fold induction at 50 µM: 0.9
E. faecium; planktonic E. faecium, […], read-out: AK-based Prestwick Library Screening Results, E. faecium (increase in extracellular AK activity)
  fold induction at 50 µM: 1.1
E. coli; planktonic E. coli, […], read-out: AK-based Prestwick Library Screening Results, E. coli (increase in extracellular AK activity)
  fold induction at 50 µM: 0.8
[2]; planktonic S. aureus, […], read-out: AK-based Prestwick Library Screening Results, S. aureus (increase in extracellular AK activity)
  fold induction at 50 µM: 0.9

## CC(=O)O[C@H]1C[C@@]2(C)[C@@H](C[C@@H](O)[C@H]3[C@@]4(C)CC[C@@H](O)[C@@H](C)[C@@H]4CC[C@@]32C)/C1=C(\CCC=C(C)C)C(=O)O [Fusidic acid sodium salt]
[1]; [10]
  fold induction at 50 µM: 1.3
E. cloacae; [11]
  fold induction at 50 µM: 1.4
P. aeruginosa; [12]
  fold induction at 50 µM: 1.1
K. pneumoniae; [13]
  fold induction at 50 µM: 1.1
E. faecium; [14]
  fold induction at 50 µM: 1.1
E. coli; [15]
  fold induction at 50 µM: 1.1
[2]; [16]
  fold induction at 50 µM: 4.2
